From patent US10815219B2, “2,4-diaminoquinazoline derivatives for inhibiting endoplasmic reticulum (ER) stress” (The Board of Regents of the University of Oklahoma, priority 2017, dated 2020)
Read-outs that look alike come from different tables or passages of the source.

System: INS-1 cells
Assay: INS-1 cell survival after Tm treatment (CellTiter-Glo, intracellular ATP)
Assay type: cell-based, rat
Conditions: for Maximum activity: % rescue from Tm (0.1 μg/mL)-induced reduction of cell viability, Tm alone 0%, DMSO 100%
Procedure: A structure-activity-relationship (SAR) study was thus conducted to improve the weak potency of lead compound 5a. Newly synthesized or commercially available compounds were tested for their β-cell-protective activity against ER stress in rat INS-1 β-cells. […] Maximum activity value in the tables is reported as % rescue from Tm (0.1 μg/mL)-induced reduction of cell viability. The values for Tm treatment alone and control (DMSO, without Tm) treatment are designated as 0% and 100%, respectively in all tables. EC50 values (the concentrations that reach half-maximal activity) for INS-1 cell viability were calculated with GraphPad Prism from the data of ten 2-fold serial titration points in all tables. All experiments were performed in triplicate in all tables.
INS-1 cells or βTC6 cells were seeded at 3×10^3 cells/well in a 384-well plate and treated with compounds at the indicated concentrations. After 3 d treatment, the medium was aspirated and 20 μL/well of CellTiter-Glo reagent (Promega, WI, USA) was added for the detection of intracellular ATP levels. Cell viability was measured with an EnVision multilabel plate reader (PerkinElmer, MA, USA).

[1] = INS-1 cell viability, Tm 0.1 μg/mL, 72 h, ten 2-fold serial titration points, Table 2, read-out: EC50
[2] = INS-1 cell viability in presence of Tm, read-out: EC50
[3] = INS-1 cell viability, Tm 0.1 μg/mL, 72 h, ten 2-fold serial titration points, Table 1, read-out: EC50
[4] = INS-1 cell viability, Tm 0.1 μg/mL, 72 h, ten 2-fold serial titration points, Table 3, read-out: EC50

OCC1CCCCN1c1nc(NCCc2ccccc2Cl)c2ccccc2n1 (racemic) [Compound 6l]
Maximum activity (72 h, Table 2): 51.4%
EC50 [1]: 0.47 ± 0.45 µM

OCC1CCCN1c1nc(NCCc2ccccc2)c2ccccc2n1 (stereo not drawn) [Compound 5a, (1-(4-(phenethylamino)quinazolin-2-yl)pyrrolidin-2-yl)methanol]
Maximum activity (72 h, Table 1): 54.4%
EC50 [2]: ~0.5 µM
EC50 (Rattus norvegicus, INS1, 72 h, INS-1 cell viability, Tm 0.1 μg/mL, 72 h, ten 2-fold serial titration points, Table 1, read-out: EC50): 0.48 ± 0.19 µM
EC50 (Rattus norvegicus, INS1, running text, INS-1 cell viability in presence of Tm, read-out: EC50): 0.48 ± 0.19 µM

OCC1CCCN1c1nc(NCCc2ccc(F)cc2)c2ccccc2n1 (stereo not drawn) [Compound 5b]
Maximum activity (72 h, Table 1): 56.2%
EC50 [3]: 2.13 ± 0.41 µM

OCC1CCCN1c1nc(NCCc2ccc(Cl)cc2)c2ccccc2n1 (stereo not drawn) [Compound 5c]
Maximum activity (72 h, Table 1): 57.3%
EC50 [2]: ~0.5 µM
EC50 [3]: 0.51 ± 0.09 µM

OCC1CCCN1c1nc(NCCc2ccc(Br)cc2)c2ccccc2n1 (stereo not drawn) [Compound 5d]
Maximum activity (72 h, Table 1): 44.1%
EC50 [2]: ~0.5 µM
EC50 [3]: 0.65 ± 0.16 µM

Cc1ccc(CCNc2nc(N3CCCC3CO)nc3ccccc23)cc1 (stereo not drawn) [Compound 5e]
Maximum activity (72 h, Table 1): 34.2%
EC50 [2]: ~0.5 µM
EC50 [3]: 0.66 ± 0.21 µM

OCC1CCCN1c1nc(NCCc2cccc(F)c2)c2ccccc2n1 (stereo not drawn) [Compound 5f]
Maximum activity (72 h, Table 1): 51.3%
EC50 [3]: 1.15 ± 0.19 µM

OCC1CCCN1c1nc(NCCc2cccc(Cl)c2)c2ccccc2n1 (stereo not drawn) [Compound 5g]
Maximum activity (72 h, Table 1): 51.5%
EC50 [3]: 1.05 ± 0.18 µM

OCC1CCCN1c1nc(NCCc2cccc(Br)c2)c2ccccc2n1 (stereo not drawn) [Compound 5h]
Maximum activity (72 h, Table 1): 53.2%
EC50 [3]: 0.78 ± 0.24 µM

COc1cccc(CCNc2nc(N3CCCC3CO)nc3ccccc23)c1 (stereo not drawn) [Compound 5i]
Maximum activity (72 h, Table 1): 54.9%
EC50 [3]: 1.51 ± 0.13 µM

OCC1CCCN1c1nc(NCCc2ccccc2F)c2ccccc2n1 (stereo not drawn) [Compound 5j]
Maximum activity (72 h, Table 1): 52.5%
EC50 [3]: 1.7 ± 0.23 µM

OCC1CCCN1c1nc(NCCc2ccccc2Cl)c2ccccc2n1 (stereo not drawn) [Compound 5k]
Maximum activity (72 h, Table 1): 50.6%
EC50 [3]: 1.44 ± 0.27 µM

OC[C@@H]1CCCN1c1nc(NCCc2ccccc2Br)c2ccccc2n1 [Compound 5l]
Maximum activity (72 h, Table 1): 39.0%
EC50 [3]: 1.88 ± 0.32 µM

COc1ccccc1CCNc1nc(N2CCCC2CO)nc2ccccc12 (stereo not drawn) [Compound 5m]
Maximum activity (72 h, Table 1): 56.6%
EC50 [3]: 3.56 ± 0.15 µM

OCC1CCCCN1c1nc(NCCc2ccccc2)c2ccccc2n1 (stereo not drawn) [Compound 6a]
Maximum activity (72 h, Table 2): 55.7%
EC50 [1]: 0.36 ± 0.21 µM

OCC1CCCCN1c1nc(NCCc2ccc(F)cc2)c2ccccc2n1 (stereo not drawn) [Compound 6b]
EC50 improvement over 2-(hydroxymethyl)pyrrolidin-1-yl counterpart (6-series versus 5-series counterpart): ~7 fold
Maximum activity (72 h, Table 2): 47.5%
EC50 [1]: 0.31 ± 0.26 µM

OCC1CCCCN1c1nc(NCCc2ccc(Cl)cc2)c2ccccc2n1 (stereo not drawn) [Compound 6c]
Maximum activity (72 h, Table 2): 57.6%
EC50 [1]: 0.17 ± 0.05 µM

OCC1CCCCN1c1nc(NCCc2ccc(Br)cc2)c2ccccc2n1 (stereo not drawn) [Compound 6d]
Maximum activity (72 h, Table 2): 52.8%
EC50 [1]: 0.34 ± 0.09 µM

Cc1ccc(CCNc2nc(N3CCCCC3CO)nc3ccccc23)cc1 (stereo not drawn) [Compound 6e]
Maximum activity (72 h, Table 2): 33.6%
EC50 [1]: 0.14 ± 0.04 µM

COc1ccc(CCNc2nc(N3CCCCC3CO)nc3ccccc23)cc1 (stereo not drawn) [Compound 6f]
Maximum activity (72 h, Table 2): 58.6%
EC50 [1]: 0.31 ± 0.12 µM

OCC1CCCCN1c1nc(NCCc2cccc(F)c2)c2ccccc2n1 (stereo not drawn) [Compound 6g]
Maximum activity (72 h, Table 2): 57.3%
EC50 [1]: 1.88 ± 0.18 µM

OCC1CCCCN1c1nc(NCCc2cccc(Cl)c2)c2ccccc2n1 (stereo not drawn) [Compound 6h]
Maximum activity (72 h, Table 2): 46.2%
EC50 [1]: 0.79 ± 0.3 µM

OCC1CCCCN1c1nc(NCCc2cccc(Br)c2)c2ccccc2n1 (stereo not drawn) [Compound 6i]
Maximum activity (72 h, Table 2): 51.7%
EC50 [1]: 0.77 ± 0.4 µM

COc1cccc(CCNc2nc(N3CCCCC3CO)nc3ccccc23)c1 (stereo not drawn) [Compound 6j]
Maximum activity (72 h, Table 2): 69.2%
EC50 (INS-1 cell viability in presence of Tm): increased
EC50 [1]: 2.59 ± 0.31 µM

OCC1CCCCN1c1nc(NCCc2ccccc2F)c2ccccc2n1 (stereo not drawn) [Compound 6k]
Maximum activity (72 h, Table 2): 60.3%
EC50 [1]: 1.46 ± 0.46 µM

OCC1CCCCN1c1nc(NCCc2ccccc2Br)c2ccccc2n1 (stereo not drawn) [Compound 6m]
Maximum activity (72 h, Table 2): 44.2%
EC50 [1]: 1.41 ± 0.31 µM

COc1ccccc1CCNc1nc(N2CCCCC2CO)nc2ccccc12 (stereo not drawn) [Compound 6n]
Maximum activity (72 h, Table 2): 46.9%
EC50 [1]: 1.6 ± 0.15 µM

COc1ccc(CNc2nc(N3CCCC3CO)nc3ccccc23)cc1 (stereo not drawn) [Compound 8c]
Maximum activity (72 h, Table 3): 57.2%
EC50 [4]: 4.05 ± 0.13 µM

COc1ccc(CNc2nc(N3CCCC3CO)nc3ccccc23)cc1OC (stereo not drawn) [Compound 8d]
Maximum activity (72 h, Table 3): 44.9%
EC50 [4]: 1.85 ± 0.39 µM

OCC1CCCCN1c1nc(NCc2ccccc2)c2ccccc2n1 (stereo not drawn) [Compound 9a]
Maximum activity (72 h, Table 3): 56.4%
EC50 [4]: 0.23 ± 0.07 µM

OCC1CCCCN1c1nc(NCc2ccc(Cl)cc2)c2ccccc2n1 (stereo not drawn) [Compound 9b]
Maximum activity (72 h, Table 3): 54.7%
EC50 [4]: 0.21 ± 0.08 µM

COc1ccc(CNc2nc(N3CCCCC3CO)nc3ccccc23)cc1OC (stereo not drawn) [Compound 9d]
Maximum activity (72 h, Table 3): 69.4%
EC50 [4]: 3.64 ± 0.38 µM

Nc1nc(Sc2cc(-n3cccc3)c(Cl)cc2[N+](=O)[O-])n[nH]1 [RH01687, reference compound]
concentration exhibiting the maximum protective activity (INS-1 cells, Tm 0.1 μg/mL, 72 h, based on dose-dependent curves): 30 µM
